Laboratory results from ChEMBL document CHEMBL1201862, “PubChem BioAssay data set” (2004).
Values joined by “and” are separate entries in the source; they are usually repeats but may differ in a detail not shown here. Identical values can stand only once. Active and inactive are the calls of the source.

Legend:
[1] = biological target: T1, Apoptotic protease-activating factor 1 (Homo sapiens, UniProt O14727); assay type: functional
T1 sequence (O14727 whole entry): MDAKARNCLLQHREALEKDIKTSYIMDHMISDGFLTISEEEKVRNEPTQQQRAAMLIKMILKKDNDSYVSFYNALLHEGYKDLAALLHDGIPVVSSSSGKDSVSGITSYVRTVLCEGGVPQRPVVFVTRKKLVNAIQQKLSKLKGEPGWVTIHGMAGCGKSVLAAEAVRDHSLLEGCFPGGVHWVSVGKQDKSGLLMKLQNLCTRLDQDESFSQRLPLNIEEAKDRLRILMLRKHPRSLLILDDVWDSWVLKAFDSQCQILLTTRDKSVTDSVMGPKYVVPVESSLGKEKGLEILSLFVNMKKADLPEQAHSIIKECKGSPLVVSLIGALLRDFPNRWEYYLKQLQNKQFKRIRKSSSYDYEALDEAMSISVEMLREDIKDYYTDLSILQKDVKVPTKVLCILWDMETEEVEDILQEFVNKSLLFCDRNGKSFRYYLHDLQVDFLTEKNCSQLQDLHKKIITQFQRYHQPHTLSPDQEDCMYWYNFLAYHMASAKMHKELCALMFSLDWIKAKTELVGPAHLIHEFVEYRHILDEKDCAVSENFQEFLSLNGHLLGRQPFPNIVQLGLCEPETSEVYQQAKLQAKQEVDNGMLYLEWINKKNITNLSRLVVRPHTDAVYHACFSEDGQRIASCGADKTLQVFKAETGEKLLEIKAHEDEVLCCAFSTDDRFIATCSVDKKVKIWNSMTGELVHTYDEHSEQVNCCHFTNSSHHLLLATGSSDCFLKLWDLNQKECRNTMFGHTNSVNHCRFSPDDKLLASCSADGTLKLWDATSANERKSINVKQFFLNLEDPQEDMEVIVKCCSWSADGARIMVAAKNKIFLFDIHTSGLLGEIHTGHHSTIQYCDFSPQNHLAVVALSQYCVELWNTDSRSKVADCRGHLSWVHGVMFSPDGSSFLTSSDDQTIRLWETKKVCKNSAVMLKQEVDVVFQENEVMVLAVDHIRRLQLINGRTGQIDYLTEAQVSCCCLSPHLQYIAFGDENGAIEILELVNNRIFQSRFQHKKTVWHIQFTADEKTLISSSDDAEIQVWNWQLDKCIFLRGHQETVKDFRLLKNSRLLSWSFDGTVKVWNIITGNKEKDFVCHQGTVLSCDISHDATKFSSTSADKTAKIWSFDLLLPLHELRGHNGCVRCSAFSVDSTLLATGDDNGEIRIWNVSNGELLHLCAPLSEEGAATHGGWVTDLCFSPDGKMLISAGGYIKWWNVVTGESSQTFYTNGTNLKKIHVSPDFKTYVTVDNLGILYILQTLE

[2] = biological target: T2, Replicative DNA helicase DnaB (Mycobacterium tuberculosis, UniProt P9WMR3); experiment: DnaB intein splicing inhibitors, dose response, biochemical, cell-free fluorescence (AID 449749); assay type: functional
T2 sequence (P9WMR3 whole entry): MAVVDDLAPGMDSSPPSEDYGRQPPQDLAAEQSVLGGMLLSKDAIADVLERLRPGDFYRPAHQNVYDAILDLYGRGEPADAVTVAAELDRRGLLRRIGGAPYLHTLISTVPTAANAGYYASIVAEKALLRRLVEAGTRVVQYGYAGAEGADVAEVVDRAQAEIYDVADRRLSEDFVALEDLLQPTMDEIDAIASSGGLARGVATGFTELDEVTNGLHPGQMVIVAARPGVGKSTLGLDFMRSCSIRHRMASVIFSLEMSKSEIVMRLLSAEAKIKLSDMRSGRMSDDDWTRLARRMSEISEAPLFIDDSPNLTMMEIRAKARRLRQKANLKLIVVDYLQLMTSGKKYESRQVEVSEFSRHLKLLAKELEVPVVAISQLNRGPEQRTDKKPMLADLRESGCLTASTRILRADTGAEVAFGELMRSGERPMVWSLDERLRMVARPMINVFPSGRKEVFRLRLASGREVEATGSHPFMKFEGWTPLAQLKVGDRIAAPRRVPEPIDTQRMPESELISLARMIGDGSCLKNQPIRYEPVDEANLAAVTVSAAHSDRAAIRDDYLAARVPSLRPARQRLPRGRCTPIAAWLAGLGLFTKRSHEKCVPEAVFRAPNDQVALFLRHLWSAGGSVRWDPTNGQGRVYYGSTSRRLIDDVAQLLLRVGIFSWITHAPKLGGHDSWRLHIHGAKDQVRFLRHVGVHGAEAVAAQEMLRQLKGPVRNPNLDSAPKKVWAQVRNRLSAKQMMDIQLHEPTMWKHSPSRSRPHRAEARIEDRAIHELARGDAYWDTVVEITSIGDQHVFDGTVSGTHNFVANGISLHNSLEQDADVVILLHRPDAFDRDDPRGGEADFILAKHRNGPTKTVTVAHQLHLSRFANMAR

[3] = biological target: Nonstructural protein 1 (Influenza A virus, UniProt Q194T2); assay type: functional, Influenza A virus (A/California/07/2009(H1N1))
[4] = biological target: Serine/threonine-protein phosphatase PP1-alpha catalytic subunit (Homo sapiens, UniProt P62136); experiment: PP1 phosphatase inhibitors, dose response, biochemical, fluorescence (AID 2394)
[5] = biological target: Serine/threonine-protein phosphatase (Homo sapiens, UniProt Q9BPW0); experiment: PP5 phosphatase inhibitors, dose response, biochemical, fluorescence (AID 2395)
[6] = biological target: T3, Protein RecA (Mycobacterium tuberculosis, UniProt P9WHJ3); experiment: Fluorescence Cell-Free Homogeneous Dose Retest to Identify Inhibitors of RecA-Intein Splicing Activity. [Related pubchem assays (depositor defined):AID2097, AID2223, AID489010, AID492950]; assay type: functional
T3 sequence (P9WHJ3 whole entry): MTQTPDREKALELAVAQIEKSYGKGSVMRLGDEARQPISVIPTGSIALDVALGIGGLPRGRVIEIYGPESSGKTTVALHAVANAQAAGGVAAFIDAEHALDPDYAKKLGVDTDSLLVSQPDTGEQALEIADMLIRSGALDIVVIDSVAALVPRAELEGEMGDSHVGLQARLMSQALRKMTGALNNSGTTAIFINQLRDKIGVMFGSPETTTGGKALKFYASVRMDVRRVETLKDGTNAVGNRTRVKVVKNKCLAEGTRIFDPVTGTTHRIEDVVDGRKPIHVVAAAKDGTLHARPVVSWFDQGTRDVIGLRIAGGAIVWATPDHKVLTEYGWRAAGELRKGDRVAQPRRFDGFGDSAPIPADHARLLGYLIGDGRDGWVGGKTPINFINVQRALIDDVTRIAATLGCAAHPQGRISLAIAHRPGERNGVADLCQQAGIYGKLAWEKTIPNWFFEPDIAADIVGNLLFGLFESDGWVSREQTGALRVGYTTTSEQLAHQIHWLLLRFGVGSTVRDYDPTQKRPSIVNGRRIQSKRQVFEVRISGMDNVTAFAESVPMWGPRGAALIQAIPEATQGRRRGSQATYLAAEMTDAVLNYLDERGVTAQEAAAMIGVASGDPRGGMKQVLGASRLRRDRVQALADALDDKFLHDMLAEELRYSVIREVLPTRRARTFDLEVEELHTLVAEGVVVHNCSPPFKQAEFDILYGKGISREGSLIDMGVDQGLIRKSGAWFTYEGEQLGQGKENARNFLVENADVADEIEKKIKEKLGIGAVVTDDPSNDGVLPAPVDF

[7] = microbe, parasite or virus in culture; assay type: functional; settings: Mycobacterium tuberculosis
[8] = HEp-2 cell cytotoxicity, dose response, cytotoxicity control for RSV inhibitor project, HTS (AID 2410); assay type: functional; settings: human respiratory syncytial virus
[9] = Luminescent dose response cell-based high throughput screening assay for inhibitors of the Janus kinase 2 mutant JAK2V617F. [Related pubchem assays: 1446 (Primary screen.), 1521 (Confirmation assay.), 1486 (Counter screen.)]; assay type: functional
[10] = Concentration-dependent survival of SW480 colon cancer line, luminescence detection with CellTiter-Glo, half-maximal inhibitory concentration (AID 1117338); assay type: functional
[11] = biological target: T4, Fibrinogen beta chain (Homo sapiens, UniProt P02675); experiment: Fluorescence polarization-based biochemical high throughput dose response assay to identify inhibitors that disrupt the binding of a cyclic peptide (Tn7) to the fibrin proteolytic product D-Dimer and fragment E complex [DD(E )].
T4 sequence (P02675 whole entry): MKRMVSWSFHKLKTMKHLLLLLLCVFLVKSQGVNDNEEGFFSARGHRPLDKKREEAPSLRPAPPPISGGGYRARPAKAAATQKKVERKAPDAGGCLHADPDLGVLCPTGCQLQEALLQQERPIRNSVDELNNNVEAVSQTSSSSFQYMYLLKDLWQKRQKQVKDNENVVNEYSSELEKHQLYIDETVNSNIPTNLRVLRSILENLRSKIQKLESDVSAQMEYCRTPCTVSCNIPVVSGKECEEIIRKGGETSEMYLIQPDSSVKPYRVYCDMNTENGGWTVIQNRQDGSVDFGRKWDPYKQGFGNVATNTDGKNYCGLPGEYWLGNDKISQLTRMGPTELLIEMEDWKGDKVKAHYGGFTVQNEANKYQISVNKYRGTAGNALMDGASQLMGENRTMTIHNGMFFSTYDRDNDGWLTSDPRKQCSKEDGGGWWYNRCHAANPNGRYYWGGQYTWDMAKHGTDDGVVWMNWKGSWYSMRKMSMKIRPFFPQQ

[12] = cytotoxicity toward HCT116 cells – cell-based, CellTiter-Glo luminescence, IC50, dose response (AID 1117332); assay type: functional; settings: HCT-116
[13] = human group III sPLA2 inhibitors, dose response, biochemical, QFRET, IC50 (AID 743457);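 further: green fluorescence rise as the enzyme cleaves BODIPY PC-A2 in liposomes; potency for inhibition of the enzyme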
[14] = SNU-C1 cell viability reduction, dose response, CellTiter-Glo luminescence (AID 1117323); assay type: functional, cell-based
[15] = cytotoxicity toward Colo320 cells – cell-based, CellTiter-Glo luminescence, IC50, dose response (AID 1117334); assay type: functional; settings: COLO 320
[16] = CellTiter-Glo luminescent dose response of DLD-1 viability loss (AID 1117352); assay type: functional
[17] = half-maximal inhibitory concentration for glucagon-like peptide-1 release, STC-1 cell line, dose-response (AID 1117345); assay type: functional, cell-based
[18] = biological target: T4, Fibrinogen beta chain; experiment: Fluorescence polarization-based biochemical high throughput dose response assay to identify inhibitors that disrupt the binding of a cyclic peptide (Tn6) to the fibrin proteolytic product D-Dimer and fragment E complex [DD(E )].
[19] = RKO cell viability reduction, dose response, CellTiter-Glo luminescence (AID 1117322); assay type: functional
[20] = biological target: Cytochrome P450 2D6 (Homo sapiens, UniProt P10635);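 further: CYP2D6 member of a cytochrome P450 panel assay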
[21] = Glucagon-like peptide 1 release potency, NCI-H716 cell line, dose-response, half-maximal inhibitory concentration (AID 1117344); assay type: functional, cell-based
[22] = tested on: H4; experiment: Luminescence Cell-Based Dose Response HTS to Identify Activators of 5'UTR Stem-Loop Driven Prion Protein mRNA Translation in H4 Neuroglioblastoma Cells. [Related pubchem assays: 1829 (Project Summary), 1814 (Primary HTS)]; assay type: functional; settings: Homo sapiens
[23] = Luminescence Cell-Based Dose Response HTS to Identify Activators of Luciferase Translation or Activity in H4 […] Cells. [Related pubchem assays: 1829 (Project Summary), 1814 (Primary HTS)]; assay type: functional
[24] = Luminescence Cell-Based Dose Confirmation HTS to Identify Activators of 5'UTR Stem-Loop Driven Alpha-Synuclein mRNA Translation in H4 Neuroglioblastoma Cells. [Related pubchem assays: 1829 (Project Summary), 1814 (Primary HTS)]; assay type: functional

Sequence of Nonstructural protein 1 (Q194T2 whole entry): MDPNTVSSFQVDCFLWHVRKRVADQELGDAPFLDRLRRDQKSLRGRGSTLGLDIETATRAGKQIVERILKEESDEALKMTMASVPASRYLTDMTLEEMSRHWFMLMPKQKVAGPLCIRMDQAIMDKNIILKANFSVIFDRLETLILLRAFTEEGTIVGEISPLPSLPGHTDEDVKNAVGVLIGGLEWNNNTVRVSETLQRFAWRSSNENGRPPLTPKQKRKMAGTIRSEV
Sequence of Serine/threonine-protein phosphatase (Q9BPW0 whole entry): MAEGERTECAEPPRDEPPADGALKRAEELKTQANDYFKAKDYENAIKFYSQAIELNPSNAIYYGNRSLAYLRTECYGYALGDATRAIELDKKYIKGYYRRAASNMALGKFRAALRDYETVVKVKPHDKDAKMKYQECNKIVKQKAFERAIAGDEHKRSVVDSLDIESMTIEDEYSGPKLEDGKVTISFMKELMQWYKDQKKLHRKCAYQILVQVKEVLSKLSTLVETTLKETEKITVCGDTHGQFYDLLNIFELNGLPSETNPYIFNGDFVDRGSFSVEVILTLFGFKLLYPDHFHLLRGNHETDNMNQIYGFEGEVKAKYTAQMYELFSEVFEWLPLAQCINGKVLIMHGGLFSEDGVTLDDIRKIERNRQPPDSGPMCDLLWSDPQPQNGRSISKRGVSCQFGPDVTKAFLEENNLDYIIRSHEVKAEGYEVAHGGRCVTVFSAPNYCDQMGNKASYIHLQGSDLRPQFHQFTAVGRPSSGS
Sequence of Serine/threonine-protein phosphatase PP1-alpha catalytic subunit (P62136 whole entry): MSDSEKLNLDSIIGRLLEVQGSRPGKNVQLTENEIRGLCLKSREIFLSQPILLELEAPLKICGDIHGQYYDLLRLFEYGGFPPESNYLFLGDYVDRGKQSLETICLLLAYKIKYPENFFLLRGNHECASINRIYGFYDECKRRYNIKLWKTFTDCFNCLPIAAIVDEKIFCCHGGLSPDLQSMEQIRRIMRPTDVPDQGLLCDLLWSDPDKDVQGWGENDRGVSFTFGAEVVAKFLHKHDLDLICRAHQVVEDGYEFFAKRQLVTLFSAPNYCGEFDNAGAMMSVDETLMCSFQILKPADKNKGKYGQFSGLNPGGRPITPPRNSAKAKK
Sequence of Cytochrome P450 2D6 (P10635 whole entry): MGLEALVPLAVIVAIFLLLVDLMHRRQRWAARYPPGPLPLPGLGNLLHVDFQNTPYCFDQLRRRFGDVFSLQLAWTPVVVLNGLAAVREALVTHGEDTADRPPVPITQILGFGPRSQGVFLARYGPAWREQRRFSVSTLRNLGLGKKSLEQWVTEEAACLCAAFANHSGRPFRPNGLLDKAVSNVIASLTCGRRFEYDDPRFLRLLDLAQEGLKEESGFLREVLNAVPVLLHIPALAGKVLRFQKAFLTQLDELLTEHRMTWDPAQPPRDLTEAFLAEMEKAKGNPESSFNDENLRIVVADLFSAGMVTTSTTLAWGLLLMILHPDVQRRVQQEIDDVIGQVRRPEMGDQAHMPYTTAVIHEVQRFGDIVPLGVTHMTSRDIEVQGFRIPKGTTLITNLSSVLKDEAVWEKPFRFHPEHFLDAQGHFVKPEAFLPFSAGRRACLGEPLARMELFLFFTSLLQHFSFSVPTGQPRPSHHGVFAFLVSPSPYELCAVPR

## Cc1ccc(NC2=C(N3CCOCC3)C(=O)c3ccccc3C2=O)cc1
[1]
  IC50: 19.4 µM (active)
[2]
  AC50: 10.7 µM (active)
[3]
  IC50: 7.74 µM (active)
[4]
  IC50: > 67 µM (not active)
[5]
  IC50: 20.9 µM (not active)
[6]
  EC50: 15.7 µM (active)

## O=C(CCl)NCc1cc(-c2ccc(Cl)cc2)no1
[7]
  CC50: 9.8 µM (active)
[8]
  CC50: 4.01 µM (active)
[9]
  IC50: 1.23 µM (active)

## C[n+]1cc2c3c(ccc2c2ccc4cc5c(cc4c21)OCO5)OCO3
[10]
  IC50: 0.379 µM (active)
[11]
  IC50: > 83.1 µM (inactive)
[12]
  IC50: 0.525 µM (active)
[13]
  IC50: 51.8 µM (inactive)
[14]
  IC50: 0.316 µM (active)
[15]
  IC50: 0.35 µM (active)
[16]
  IC50: 0.576 µM (active)
[17]
  IC50: > 40 µM (inactive)
[18]
  IC50: 24.2 µM (inactive)
[19]
  IC50: 0.265 µM (active)
[20]
  AC50: 31.6 µM (inconclusive) and 7.94 µM (inconclusive)
[21]
  IC50: > 40 µM (inactive)

## O=C1C(c2ccccc2)=[N+]([O-])c2ccccc21
[1]
  IC50: 5.8 µM (active)
[22]
  EC50: 20 µM (active)
[3]
  IC50: 45.5 µM (active)
[4]
  IC50: 2.67 µM (active)
[5]
  IC50: 10.3 µM (not active)
[23]
  EC50: 36.4 µM (active)
[24]
  EC50: 12.7 µM (active)
